Source: ChEMBL document CHEMBL1135236, “Synthesis of iodinated 3beta-aryltropanes with selective binding to either the dopamine or serotonin transporters” (Bioorg Med Chem Lett, 2002)

Columns and labels:
[1] = target: Sodium-dependent dopamine transporter (Rattus norvegicus, UniProt P23977); test: Tested for the ability to displace [125I]- RTI-55 binding in rat striatal membrane against dopamine transporter; assay type: cell membranes, Striatum
[2] = target: Sodium-dependent serotonin transporter (Rattus norvegicus, UniProt P31652); test: Tested for the ability to displace [3H]- paroxetine binding in rat frontal cortex membrane against Serotonin transporter; assay type: cell membranes
Sodium-dependent serotonin transporter, sequence (P31652 whole entry): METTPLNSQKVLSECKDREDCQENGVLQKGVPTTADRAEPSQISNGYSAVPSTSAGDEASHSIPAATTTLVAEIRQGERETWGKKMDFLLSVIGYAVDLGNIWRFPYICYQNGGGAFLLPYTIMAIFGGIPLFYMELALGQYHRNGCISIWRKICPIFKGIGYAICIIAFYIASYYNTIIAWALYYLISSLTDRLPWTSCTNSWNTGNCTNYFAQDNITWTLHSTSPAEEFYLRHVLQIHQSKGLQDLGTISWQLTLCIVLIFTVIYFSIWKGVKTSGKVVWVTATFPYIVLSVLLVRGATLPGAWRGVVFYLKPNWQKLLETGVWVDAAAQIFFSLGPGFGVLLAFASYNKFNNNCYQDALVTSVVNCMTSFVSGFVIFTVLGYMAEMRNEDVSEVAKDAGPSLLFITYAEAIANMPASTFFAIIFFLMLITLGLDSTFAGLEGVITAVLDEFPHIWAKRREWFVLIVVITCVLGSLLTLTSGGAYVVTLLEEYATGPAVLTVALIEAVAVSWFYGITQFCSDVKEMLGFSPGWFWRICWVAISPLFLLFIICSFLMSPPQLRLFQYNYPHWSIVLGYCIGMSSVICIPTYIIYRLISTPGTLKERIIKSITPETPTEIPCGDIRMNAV

[3] = target: Sodium-dependent serotonin transporter (Rattus norvegicus) (UniProt P31652); test: Ratio of serotonin transporter potency to that of dopamine transporter potency
Sodium-dependent serotonin transporter (Rattus norvegicus), sequence (P31652 whole entry): as above

Sodium-dependent dopamine transporter, sequence (P23977 whole entry): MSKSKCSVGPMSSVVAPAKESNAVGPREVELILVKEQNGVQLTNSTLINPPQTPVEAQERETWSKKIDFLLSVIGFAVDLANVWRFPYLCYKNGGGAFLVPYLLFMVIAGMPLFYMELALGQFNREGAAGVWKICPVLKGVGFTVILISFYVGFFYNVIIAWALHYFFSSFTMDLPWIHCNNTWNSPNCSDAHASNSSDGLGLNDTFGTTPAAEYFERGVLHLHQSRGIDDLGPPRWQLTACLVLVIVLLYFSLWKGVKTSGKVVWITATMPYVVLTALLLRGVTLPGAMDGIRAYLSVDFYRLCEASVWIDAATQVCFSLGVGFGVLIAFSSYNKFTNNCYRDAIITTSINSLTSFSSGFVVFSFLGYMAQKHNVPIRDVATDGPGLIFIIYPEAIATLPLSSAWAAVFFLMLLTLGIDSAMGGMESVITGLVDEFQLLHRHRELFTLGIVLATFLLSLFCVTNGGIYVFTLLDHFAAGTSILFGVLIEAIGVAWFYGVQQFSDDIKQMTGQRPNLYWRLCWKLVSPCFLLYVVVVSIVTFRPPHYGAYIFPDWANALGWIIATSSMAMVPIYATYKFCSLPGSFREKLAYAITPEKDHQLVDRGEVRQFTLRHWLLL

SMILES | IC50 [1] [nM] | Ki [2] [nM] | Ratio [3]
CCC(=O)C1C2CCC(CC1c1cccc(I)c1)N2 (centres undefined) | 19.8 | 15.7 | 1.3
CCC(=O)C1C(c2ccc(-c3cccn3C)cc2)CC2CCC1N2C/C=C/I (centres undefined) | 753 | 2.82 | 270
CCC(=O)C1C2CCC(CC1c1ccc(/C=C/I)cc1)N2 (centres undefined) | 51.3 | 0.62 | 83
CCC(=O)C1C2CCC(CC1c1ccc(/C=C(/C)I)cc1)N2 (centres undefined) | 66.5 | 0.13 | 510
CCC(=O)C1C(c2cccc(I)c2)CC2CCC1N2C (centres undefined) | 56.5 | 19.7 | 2.9
CCC(=O)C1C2CCC(CC1c1ccc(I)c(Cl)c1)N2 (centres undefined) | 0.085 | 1.08 | 0.079
CCC(=O)C1C2CCC(CC1c1ccc(I)cc1)N2 (centres undefined) | 2.2 | 2.44 | 0.9
CCC(=O)C1C(c2ccc(I)cc2)CC2CCC1N2C (centres undefined) | 1.69 | 1.88 | 0.9
CCC(=O)C1C(c2ccc(I)c(F)c2)CC2CCC1N2C (centres undefined) | 0.38 | 9.07 | 0.041
CCC(=O)C1C2CCC(CC1c1ccc(I)c(F)c1)N2 (centres undefined) | 1.08 | 7.26 | 0.15
Cc1ccc([C@H]2CC3CCC([C@H]2C(=O)C(C/C=C/I)C/C=C/I)N3C)cc1 (some centres undefined) | 47.2 | > 1100 | 
CCC(=O)C1C(c2ccc(-c3cccn3C)cc2)CC2CCC1N2C/C=C\I (centres undefined) | 1120 | 13.1 | 86
Cc1ccc(C2CC3CCC(C2C(=O)CC/C=C/I)N3C)cc1 (centres undefined) | 13.3 | 50.8 | 0.26
CCC(=O)C1C(c2ccc(I)c(Cl)c2)CC2CCC1N2C (centres undefined) | 0.077 | 1.14 | 0.067
CCC(=O)C1C2CCC(CC1c1ccc(/C=C(\C)I)cc1)N2 (centres undefined) | 401 | 0.57 | 710
